The source of these data is US11376271B1, “Methods of ameliorating the effects of alcoholic liver damage” (FULGENT LIFE INC., priority 2021, dated 2022).

Data set [1] relates to AML12 cells. The experiment in a line: NAD+/NADH ratio in AML12 cells. Conditions: 1 mM, 6 h, vs control.
Data set [2] concerns male C57BL/6J mice. Kind of data set: Liver triglyceride and serum VLDL (lipid metabolism). The format is in vivo. Conditions: 500 mg/kg intragastric 15 min prior to 8 ml/kg ethanol. The procedure: Liver samples were prepared with homogenization in cold isotonic saline. The homogenate (10%, w/v) was centrifuged at 4500 g for 10 minutes and the supernatant was used for biochemical analysis. The MDA, SOD and TG levels were determined with commercial kits (Abcam, #ab118970; Thermofisher, #EIASODC and Abcam, ab65336) according to the manufacturer's instructions. The results were normalized to the total protein determined by BCA Protein Assay Kit (Abcam, #ab102536) according to the manufacturer's instructions. […] Liver histopathology was detected by Oil Red 0 staining. According to the standard operating procedure, some liver tissues were fixed for histopathological assessment. The other part of the liver was stored at −80° C. […] frozen sections were stained with Oil Red 0 to detect liver steatosis. The stained sections were examined by a 400× optical microscope. The level of VLDL in serum samples was examined with a Bio-Tek synergy2 Multiscan Spectrum (Botten Instruments Co.). To evaluate alcoholic liver injury, the index of liver lipid metabolism (i.e., the triglyceride (TG) level in liver tissue) and the activity of serum Very Low Density Lipoprotein (VLDL) were also measured in the mice treated as described above in connection with FIG. 9A. […] The data in both FIGS. 9A and 9B are expressed as mean±SD (n=8); *p<0.01 vs control; #p<0.01 vs alcohol exposure.

The test system of data set [3] is AML12 cells. Kind of data set: Apoptosis markers Annexin V and Caspase 3/7 by flow cytometry. The data set is classed as cell-based. Conditions: 1 mM, 24 hours.
Source text: To examine apoptotic markers, AML12 cells were stained for Annexin V and Caspase 3/7, and cells were counted with a flow cytometer. […] Data are expressed as mean±SD, n=3. Quadrants with live cells (brown), necrotic cells (gray) and apoptotic cells (blue) were quantified.
Data set [4] relates to male C57BL/6J mice. Kind of data set: Blood ethanol and acetaldehyde levels after ethanol administration.
The test system of data set [5] is male C57BL/6J mice. The experiment in a line: Plasma AST and ALT in acute alcohol-induced hepatotoxicity. The format is in vivo. On the procedure:
Liver marker enzymes in plasma, such as aspartate transaminase (AST) and alanine aminotransferase (ALT), are known as sensitive biochemical markers of early liver damage. […] Six hours after treatment with alcohol, blood samples were taken to detect biochemical indexes. […] The control group was given the same amount of normal saline in place of the ethanol. […] The plasma levels of AST and ALT were determined by collecting blood samples in an anti-coagulant test tube and centrifuging at 1500 rpm for 10 minutes to attain plasma. The plasma AST and ALT activity was determined with a commercial kit (from Sigma-Aldrich) based on the manufacturer's instructions.

Data set [6] concerns C2C12, Neuro2a and AML12 cells. The experiment in a line: Toxicity: total cell number / trypan blue count after 24 h. The data set is classed as cell-based. Conditions: 1 mM. On the procedure:
The sharp increase of NAD+ concentration indicates a possible toxicity to cells. To assess this toxicity, C2C12, Neuro2a and AML12 cells were treated with 1 mM NADH for 24 hours, and then the total cell numbers were measured. […] The cells were stained with trypan blue and then counted with a hemocytometer. […] The Annexin V/PI staining kit and Caspases3/7/SYTOX dead cell staining kit (Life Technologies) were used and cells were counted with a BD FACSCelesta™ flow cytometer. The quadrants of apoptotic cells, necrotic cells and living cells were identified and quantified according to the manufacturer's instructions.
To examine apoptotic markers, AML12 cells were stained for Annexin V and Caspase 3/7, and cells were counted with a flow cytometer. […] Quadrants with live cells (brown), necrotic cells (gray) and apoptotic cells (blue) were quantified.

The test system of data set [7] is male C57BL/6J mice. Kind of data set: Tissue NAD+ content after intraperitoneal injection. The data set is classed as in vivo. Conditions: 4 hours. On the procedure:
In the below in vivo assays, C57BL/6J male mice (The Jackson Laboratory) (40 days of age) were used. They were kept under standard laboratory conditions with a temperature of 22±1° C., dark/light cycles of 12/12 h, and relative humidity of 55±5%. All animals had free access to food and water, except for indicated fasting periods (and where not indicated for fasting periods of 2 hours before administration).
[…] Specifically, ten 8-week-old male C57BL/6J mice (The Jackson Laboratory) were kept in polycarbonate cages under a 12-h light/dark cycle with free access to food and water. […] Four hours later, the blood samples were collected by cardiac puncture and the mice were executed. Liver, brain, muscle, and adipose tissues were collected, instantly frozen in liquid nitrogen, and then stored at −80° C. until performance of the NAD+ analyses. […] Four hours later, the mice were killed and tissue samples were collected. All animal studies were performed according to the Guidelines for the Care and Use of Experimental Animals. For this NAD+ assay, about 100 mg of frozen tissue was crushed in liquid nitrogen and ultrasonically homogenized in 7% perchloric acid, and then the solution was neutralized and subjected to the NAD+ determination described here.
Data are indicated as mean±SD.

Where [8] appears, read: 500 mg/kg intragastric 15 min before 8 ml/kg ethanol (40% w/v).
Where [9] appears, read: 500 mg/kg intragastric 30 min prior to 8 ml/kg ethanol (40% w/v), blood 6 h after alcohol.
The mark [10] stands for this setting: 40% ethanol every 24 h for 3 days, then 500 mg/kg every day for three days.

Molecules are shown by their SMILES.

For `NC(=O)C1=CN([C@@H]2O[C@H](COP(=O)(O)OP(=O)(O)OC[C@H]3O[C@@H](n4cnc5c(N)ncnc54)C(O)C3O)C(O)C2O)C=CC1` (stereo partly drawn) [NADH, nicotinamide adenine dinucleotide (NAD)+hydrogen (H)], the “NAD+/NADH ratio” value in the data set on AML12 cells [1] was “significantly increase”. For the same molecule, in the data set with male C57BL/6J mice [2], the “liver TG level vs alcohol exposure alone” value is on record as “decreased”, the “liver index vs alcohol exposure alone” value is “decreased” and the “serum VLDL level vs alcohol exposure alone” value is “decreased”. Also, the “Annexin V or caspase 3/7 apoptosis markers vs control” value with AML12 cells [3] was “no significant changes”. Further, in the data set on male C57BL/6J mice [4] (setting [8]), the “acetaldehyde in the blood two hours after alcohol administration” value is “significantly reduced” and the “blood acetaldehyde levels within two hours after ethanol administration” value is on record as “significantly increased”. Besides, the “ethanol in the blood” value with male C57BL/6J mice [4] (500 mg/kg oral 15 min before 8 ml/kg ethanol (40% w/v), 30 minutes after ethanol) is “significantly reduced”. Besides, in the data set on male C57BL/6J mice [5] (setting [9]), the “plasma ALT level, pre-treatment” value is “significantly reduce” and the “plasma AST level, pre-treatment” value is given as “significantly reduce”. Moreover, in the data set on male C57BL/6J mice [5] (setting [10]), the “plasma ALT level, treatment after alcohol exposure” value is “significantly reduce” and the “plasma AST level, treatment after alcohol exposure” value is “significantly reduce”. In data set [6], the “Trypan blue positive cells” value is given as “less than 5%” and the “loss of cultured cells (total cell number)” value is on record as “no obvious loss”. For the same molecule, the “increase of the concentration of NAD+ in the liver” value in the data set with male C57BL/6J mice [7] (250 mg/kg intraperitoneal) was 680%. For the same molecule, in the data set with male C57BL/6J mice [7] (1000 mg/kg intraperitoneal), the “NAD+-promoting effect in skeletal muscle” value was “lowest”; the “content of NAD+ in blood, brain and fat” value is “increased several times”; the “increase of NAD+ content in liver” value is listed as “more than 7 times”.
